In data set [1] the target is Vascular endothelial growth factor receptor 2 (Homo sapiens, UniProt P35968). In words: Inhibition of KDR (unknown origin).
A short description of data set [2]: Octanol/buffer partition co-efficient, log D of the compound at pH 7.4 after 30 mins by shake-flask method. In kind it is physicochemical.
Data set [3] concerns the target T1, Phosphatidylinositol 4,5-bisphosphate 3-kinase catalytic subunit alpha isoform (Homo sapiens, UniProt P42336). The experiment in a line: Inhibition of PI3Kalpha in human BT474 cells assessed as inhibition of Akt phosphorylation at […] after 2 hrs by ELISA. In kind it is cell-based, BT-474.
Data set [4] has as its target T2, Phosphatidylinositol 4,5-bisphosphate 3-kinase catalytic subunit beta isoform (Homo sapiens, UniProt P42338). In words: Inhibition of PI3Kbeta in human MDA-MB-468 cells assessed as inhibition of Akt phosphorylation at Ser-473 after 2 hrs by ELISA. In kind it is cell-based.
Data set [5] has as its target T2, Phosphatidylinositol 4,5-bisphosphate 3-kinase catalytic subunit beta isoform. The experiment in a line: Inhibition of recombinant human PI3Kbeta using PIP2/ATP as substrate preincubated for 20 mins followed by substrate addition measured after 80 mins by Kinase-Glo plus assay.
The target of data set [6] is T1, Phosphatidylinositol 4,5-bisphosphate 3-kinase catalytic subunit alpha isoform. The experiment in a line: Inhibition of recombinant human PI3Kalpha using PIP2/ATP as substrate preincubated for 20 mins followed by substrate addition measured after 80 mins by Kinase-Glo plus assay.
Data set [7] concerns the target T3, Phosphatidylinositol 4,5-bisphosphate 3-kinase catalytic subunit delta isoform (Homo sapiens, UniProt O00329).
T3 sequence (O00329 whole entry): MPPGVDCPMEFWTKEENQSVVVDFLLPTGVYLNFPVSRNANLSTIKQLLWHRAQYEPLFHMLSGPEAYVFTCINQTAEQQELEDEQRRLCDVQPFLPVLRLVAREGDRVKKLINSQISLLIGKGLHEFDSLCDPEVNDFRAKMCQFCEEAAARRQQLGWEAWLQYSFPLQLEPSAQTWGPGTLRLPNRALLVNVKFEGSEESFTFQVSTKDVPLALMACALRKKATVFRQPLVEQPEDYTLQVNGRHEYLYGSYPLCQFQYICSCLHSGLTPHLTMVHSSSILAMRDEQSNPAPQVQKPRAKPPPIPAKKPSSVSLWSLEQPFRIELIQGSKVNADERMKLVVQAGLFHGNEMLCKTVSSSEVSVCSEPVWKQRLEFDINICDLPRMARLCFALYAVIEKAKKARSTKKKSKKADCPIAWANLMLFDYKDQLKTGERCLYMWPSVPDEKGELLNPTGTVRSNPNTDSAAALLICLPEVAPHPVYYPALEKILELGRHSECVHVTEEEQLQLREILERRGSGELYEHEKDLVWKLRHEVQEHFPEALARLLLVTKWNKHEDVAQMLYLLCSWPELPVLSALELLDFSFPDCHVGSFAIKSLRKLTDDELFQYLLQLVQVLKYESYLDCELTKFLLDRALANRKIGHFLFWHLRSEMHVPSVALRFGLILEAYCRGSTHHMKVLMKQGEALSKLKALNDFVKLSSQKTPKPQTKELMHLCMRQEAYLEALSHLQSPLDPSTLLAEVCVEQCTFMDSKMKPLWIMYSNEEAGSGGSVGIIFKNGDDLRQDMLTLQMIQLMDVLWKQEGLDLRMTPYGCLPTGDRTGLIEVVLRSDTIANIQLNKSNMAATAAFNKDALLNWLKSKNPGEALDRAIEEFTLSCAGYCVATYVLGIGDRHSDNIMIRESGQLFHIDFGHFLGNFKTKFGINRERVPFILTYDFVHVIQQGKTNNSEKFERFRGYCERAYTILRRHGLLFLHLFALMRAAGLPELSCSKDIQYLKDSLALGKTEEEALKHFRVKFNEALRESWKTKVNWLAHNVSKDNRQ
In words: Inhibition of recombinant human PI3Kdelta using PIP2/ATP as substrate preincubated for 20 mins followed by substrate addition measured after 80 mins by Kinase-Glo plus assay.

Data set [8] concerns the target Phosphatidylinositol 4,5-bisphosphate 3-kinase catalytic subunit gamma isoform (Homo sapiens, UniProt P48736). In words: Inhibition of recombinant human PI3Kgamma using PIP2/ATP as substrate preincubated for 20 mins followed by substrate addition measured after 80 mins by Kinase-Glo plus assay.
Data set [9] addresses Serine/threonine-protein kinase mTOR (Homo sapiens, UniProt P42345). In words: Inhibition of m-TOR (unknown origin).
The target of data set [10] is Dual specificity tyrosine-phosphorylation-regulated kinase 1A (Homo sapiens) (UniProt Q13627). In words: Inhibition of DYRK1A (unknown origin) at 1 uM preincubated for 5 mins with enzyme and substrate followed by ATP addition relative to control.
For data set [11], the target named is Receptor-interacting serine/threonine-protein kinase 2 (Homo sapiens) (UniProt O43353). The experiment in a line: Inhibition of RIPK2 (unknown origin) at 1 uM preincubated for 5 mins with enzyme and substrate followed by ATP addition relative to control.
Data set [12] addresses Glycogen synthase kinase-3 beta (Homo sapiens) (UniProt P49841). The experiment in a line: Inhibition of GSK-3beta (unknown origin) at 1 uM preincubated for 5 mins with enzyme and substrate followed by ATP addition relative to control.

T2 sequence (P42338 whole entry, canonical isoform): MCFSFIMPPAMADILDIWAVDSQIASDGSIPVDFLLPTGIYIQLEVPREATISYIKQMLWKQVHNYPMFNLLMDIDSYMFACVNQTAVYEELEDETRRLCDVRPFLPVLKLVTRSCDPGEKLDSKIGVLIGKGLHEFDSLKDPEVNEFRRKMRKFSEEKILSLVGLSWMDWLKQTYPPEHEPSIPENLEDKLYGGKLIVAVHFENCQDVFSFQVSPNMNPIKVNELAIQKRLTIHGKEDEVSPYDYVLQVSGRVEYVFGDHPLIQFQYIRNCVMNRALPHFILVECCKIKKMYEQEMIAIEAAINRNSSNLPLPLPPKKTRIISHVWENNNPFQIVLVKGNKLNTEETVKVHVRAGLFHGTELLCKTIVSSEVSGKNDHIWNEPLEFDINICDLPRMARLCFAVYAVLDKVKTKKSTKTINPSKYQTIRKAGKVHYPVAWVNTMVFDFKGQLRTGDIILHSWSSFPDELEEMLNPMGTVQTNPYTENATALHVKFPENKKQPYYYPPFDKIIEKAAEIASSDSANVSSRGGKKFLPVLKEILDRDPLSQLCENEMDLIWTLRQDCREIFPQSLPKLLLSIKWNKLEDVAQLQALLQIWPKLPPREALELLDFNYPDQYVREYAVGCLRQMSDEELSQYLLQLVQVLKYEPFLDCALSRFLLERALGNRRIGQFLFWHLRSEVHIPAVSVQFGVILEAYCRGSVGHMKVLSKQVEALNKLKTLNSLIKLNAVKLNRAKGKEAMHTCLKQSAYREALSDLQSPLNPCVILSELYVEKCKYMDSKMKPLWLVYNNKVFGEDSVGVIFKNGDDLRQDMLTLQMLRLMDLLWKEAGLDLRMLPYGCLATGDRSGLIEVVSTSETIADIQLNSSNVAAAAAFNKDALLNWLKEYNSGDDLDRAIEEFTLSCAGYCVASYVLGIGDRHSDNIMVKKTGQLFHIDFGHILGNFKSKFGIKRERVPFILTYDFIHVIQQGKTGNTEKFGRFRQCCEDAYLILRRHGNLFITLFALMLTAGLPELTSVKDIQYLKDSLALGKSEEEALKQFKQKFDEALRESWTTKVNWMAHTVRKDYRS
T1 sequence (P42336 whole entry, canonical isoform): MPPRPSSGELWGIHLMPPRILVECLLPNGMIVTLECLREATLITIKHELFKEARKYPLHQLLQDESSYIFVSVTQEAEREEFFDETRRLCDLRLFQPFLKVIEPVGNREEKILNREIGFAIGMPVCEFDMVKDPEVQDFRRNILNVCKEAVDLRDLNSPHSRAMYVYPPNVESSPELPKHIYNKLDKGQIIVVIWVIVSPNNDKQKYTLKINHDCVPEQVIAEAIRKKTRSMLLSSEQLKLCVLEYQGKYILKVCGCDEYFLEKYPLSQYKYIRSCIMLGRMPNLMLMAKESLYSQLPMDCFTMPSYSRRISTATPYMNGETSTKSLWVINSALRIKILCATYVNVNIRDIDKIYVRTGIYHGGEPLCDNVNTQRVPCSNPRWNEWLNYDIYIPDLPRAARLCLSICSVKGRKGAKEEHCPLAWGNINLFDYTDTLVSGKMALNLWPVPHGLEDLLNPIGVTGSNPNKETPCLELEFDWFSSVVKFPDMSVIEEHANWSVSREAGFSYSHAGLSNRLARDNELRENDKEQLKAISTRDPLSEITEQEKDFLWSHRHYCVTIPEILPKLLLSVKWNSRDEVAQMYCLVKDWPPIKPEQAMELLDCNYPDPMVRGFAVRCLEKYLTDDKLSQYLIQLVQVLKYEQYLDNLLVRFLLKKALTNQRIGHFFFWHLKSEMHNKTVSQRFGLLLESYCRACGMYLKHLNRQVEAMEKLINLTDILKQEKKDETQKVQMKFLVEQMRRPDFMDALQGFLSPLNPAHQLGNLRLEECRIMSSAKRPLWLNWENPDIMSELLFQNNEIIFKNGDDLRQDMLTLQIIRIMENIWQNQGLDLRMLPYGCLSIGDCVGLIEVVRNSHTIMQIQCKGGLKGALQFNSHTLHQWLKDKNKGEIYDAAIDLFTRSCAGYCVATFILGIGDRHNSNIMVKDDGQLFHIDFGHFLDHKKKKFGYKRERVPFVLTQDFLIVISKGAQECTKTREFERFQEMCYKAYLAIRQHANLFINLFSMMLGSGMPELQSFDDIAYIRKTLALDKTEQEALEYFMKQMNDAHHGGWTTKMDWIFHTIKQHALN
Chain of Vascular endothelial growth factor receptor 2 (P35968 whole entry): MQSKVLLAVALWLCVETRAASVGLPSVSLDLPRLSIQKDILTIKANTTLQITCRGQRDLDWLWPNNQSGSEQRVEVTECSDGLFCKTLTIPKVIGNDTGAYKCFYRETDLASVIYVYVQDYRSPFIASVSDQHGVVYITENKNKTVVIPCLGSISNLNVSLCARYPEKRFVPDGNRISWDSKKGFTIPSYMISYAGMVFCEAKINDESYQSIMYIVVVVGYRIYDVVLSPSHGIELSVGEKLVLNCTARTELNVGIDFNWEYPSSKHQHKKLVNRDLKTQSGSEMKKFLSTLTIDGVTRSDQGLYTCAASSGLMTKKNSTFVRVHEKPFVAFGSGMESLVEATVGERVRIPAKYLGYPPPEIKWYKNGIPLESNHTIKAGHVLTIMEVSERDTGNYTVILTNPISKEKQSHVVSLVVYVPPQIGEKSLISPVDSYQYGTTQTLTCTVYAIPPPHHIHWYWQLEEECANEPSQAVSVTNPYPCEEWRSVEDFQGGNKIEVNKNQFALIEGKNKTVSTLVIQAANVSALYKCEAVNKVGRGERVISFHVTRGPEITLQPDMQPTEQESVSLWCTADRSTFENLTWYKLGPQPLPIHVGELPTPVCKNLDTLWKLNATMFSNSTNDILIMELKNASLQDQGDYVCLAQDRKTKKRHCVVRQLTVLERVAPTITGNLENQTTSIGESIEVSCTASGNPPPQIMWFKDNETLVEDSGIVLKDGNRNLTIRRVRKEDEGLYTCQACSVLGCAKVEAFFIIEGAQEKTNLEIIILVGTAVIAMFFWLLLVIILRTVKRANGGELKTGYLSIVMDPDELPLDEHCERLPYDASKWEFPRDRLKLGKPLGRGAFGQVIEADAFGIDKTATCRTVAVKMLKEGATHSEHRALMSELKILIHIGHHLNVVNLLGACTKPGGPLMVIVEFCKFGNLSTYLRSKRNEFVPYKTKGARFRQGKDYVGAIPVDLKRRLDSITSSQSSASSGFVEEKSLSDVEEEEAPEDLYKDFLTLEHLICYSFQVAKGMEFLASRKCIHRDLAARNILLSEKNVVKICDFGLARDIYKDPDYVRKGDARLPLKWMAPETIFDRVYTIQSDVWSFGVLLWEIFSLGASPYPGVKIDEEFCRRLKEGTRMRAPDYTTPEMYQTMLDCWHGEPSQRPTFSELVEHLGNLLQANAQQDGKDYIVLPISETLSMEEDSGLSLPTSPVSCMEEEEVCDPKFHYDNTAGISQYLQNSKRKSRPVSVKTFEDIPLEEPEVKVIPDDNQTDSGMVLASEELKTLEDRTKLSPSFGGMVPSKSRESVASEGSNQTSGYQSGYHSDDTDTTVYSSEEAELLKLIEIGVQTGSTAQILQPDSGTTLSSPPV
Chain of Phosphatidylinositol 4,5-bisphosphate 3-kinase catalytic subunit gamma isoform (P48736 whole entry, canonical isoform): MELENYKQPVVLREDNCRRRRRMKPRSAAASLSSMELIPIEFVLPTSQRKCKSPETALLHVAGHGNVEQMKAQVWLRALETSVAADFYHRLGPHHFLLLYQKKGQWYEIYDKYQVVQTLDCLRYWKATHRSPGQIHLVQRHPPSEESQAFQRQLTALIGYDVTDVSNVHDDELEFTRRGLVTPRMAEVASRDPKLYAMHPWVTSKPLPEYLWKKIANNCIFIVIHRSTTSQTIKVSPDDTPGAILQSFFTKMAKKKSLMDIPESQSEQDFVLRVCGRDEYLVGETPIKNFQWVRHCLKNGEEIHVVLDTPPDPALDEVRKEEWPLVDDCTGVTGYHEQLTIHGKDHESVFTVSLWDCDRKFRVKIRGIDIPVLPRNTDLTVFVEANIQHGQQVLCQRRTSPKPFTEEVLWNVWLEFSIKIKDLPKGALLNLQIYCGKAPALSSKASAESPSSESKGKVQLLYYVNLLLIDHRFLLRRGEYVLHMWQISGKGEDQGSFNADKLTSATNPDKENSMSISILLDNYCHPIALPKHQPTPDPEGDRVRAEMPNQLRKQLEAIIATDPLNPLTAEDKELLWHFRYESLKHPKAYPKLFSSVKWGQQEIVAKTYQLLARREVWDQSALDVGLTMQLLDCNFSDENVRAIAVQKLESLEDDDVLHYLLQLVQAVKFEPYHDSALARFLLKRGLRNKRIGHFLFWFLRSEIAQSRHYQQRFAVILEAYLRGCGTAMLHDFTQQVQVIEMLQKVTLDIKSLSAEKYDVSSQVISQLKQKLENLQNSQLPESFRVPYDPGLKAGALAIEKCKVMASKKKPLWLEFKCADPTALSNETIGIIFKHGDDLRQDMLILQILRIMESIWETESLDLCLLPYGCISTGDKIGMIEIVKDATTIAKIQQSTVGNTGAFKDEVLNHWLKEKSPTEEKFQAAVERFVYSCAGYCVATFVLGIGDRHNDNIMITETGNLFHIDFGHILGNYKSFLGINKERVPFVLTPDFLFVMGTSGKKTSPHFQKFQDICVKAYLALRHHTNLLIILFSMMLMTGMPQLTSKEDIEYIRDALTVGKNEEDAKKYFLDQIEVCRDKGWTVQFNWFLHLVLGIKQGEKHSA
Chain of Glycogen synthase kinase-3 beta (Homo sapiens) (P49841 whole entry, looked up): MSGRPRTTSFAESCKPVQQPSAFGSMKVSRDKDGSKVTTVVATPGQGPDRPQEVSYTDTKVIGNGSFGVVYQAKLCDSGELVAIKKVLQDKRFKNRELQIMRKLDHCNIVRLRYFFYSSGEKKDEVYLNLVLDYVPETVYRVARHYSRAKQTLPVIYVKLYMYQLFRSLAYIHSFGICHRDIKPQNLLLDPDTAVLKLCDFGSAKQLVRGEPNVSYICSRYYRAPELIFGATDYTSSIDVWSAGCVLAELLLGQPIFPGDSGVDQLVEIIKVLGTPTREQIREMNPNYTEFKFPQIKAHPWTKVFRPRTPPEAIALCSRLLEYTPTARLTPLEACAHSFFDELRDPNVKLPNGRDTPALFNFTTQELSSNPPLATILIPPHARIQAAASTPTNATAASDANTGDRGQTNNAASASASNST

For `CN(C)CC(=O)N1CCC(n2ncc(-c3cnc(N)c(-n4nnc5ccccc54)n3)n2)CC1`, the IC50 in data set [1] came to 210 nM; in data set [3], 140 nM; in data set [4], 7800 nM; in data set [5], 650 nM; in data set [6] it was 21 nM. The compound further displayed a logD at 0.5 h in [2] of 1.9.

On to `CN(C)CC(=O)N1CCC(n2cc(-c3cnc(N)c(-n4nnc5ccccc54)n3)cn2)CC1`, for which the IC50 came out at 29 nM in [1]; 20 nM in data set [7]; 280 nM in [8]; 58 nM in data set [3]; 13000 nM in data set [4]; 900 nM in data set [5]. Besides, the IC50 amounted to 15000 nM in data set [9] and 16 nM in [6]. In addition, in [2], the logD at 0.5 h came out at 1.7.

In the case of `CN(C)CC(=O)N1CCC(n2ccc(-c3cnc(N)c(-n4nnc5ccccc54)n3)n2)CC1`, the IC50 was found to be 170 nM in [1]; 250 nM in data set [3]; 10000 nM in [4]; 1700 nM in data set [5]; 27 nM in [6]. This compound registered a logD at 0.5 h in [2] of 1.8.

In the case of `CN(C)CC(=O)N1CCC(c2cc(-c3cnc(N)c(-n4nnc5ccccc54)n3)n(C)n2)CC1`, the IC50 in data set [1] came out at 90 nM; in [3] it was 91 nM; in data set [4] it was 4300 nM; in [5] it was 380 nM; in data set [6], 6 nM. In data set [2], this compound gave a logD at 0.5 h of 1.8.

For the compound `CN(C)CC(=O)N1CCC(c2nc(-c3cnc(N)c(-n4nnc5ccccc54)n3)n(C)n2)CC1`, the IC50 is 9000 nM in [1]; 17 nM in data set [7]; 650 nM in data set [8]; 270 nM in data set [3]; 6900 nM in data set [4]; 1000 nM in data set [5]. Further, the values for the IC50 in data set [9] and in data set [6] were 21000 nM and 29 nM, respectively. Besides, the logD at 0.5 h in data set [2] is 0.9. For the same compound, the inhibition in data set [10], in data set [11] and in data set [12] was 60% throughout.

`CN(C)CC(=O)N1CCC(c2nc(-c3cnc(N)c(-n4nnc5ccccc54)n3)nn2C)CC1`: the IC50 in data set [1] amounted to 1200 nM; in [3], 3900 nM; in data set [4], 12000 nM; in data set [5], 2400 nM; in [6], 280 nM. Besides, the logD at 0.5 h in data set [2] worked out at 1.

Consider `CN(C)CC(=O)N1CCC(c2cn(C)c(-c3cnc(N)c(-n4nnc5ccccc54)n3)n2)CC1`, for which the IC50 in data set [1] was determined as 6600 nM; in data set [3], 690 nM; in [4] it was 7900 nM; in [5] it was 1300 nM; in data set [6], 64 nM. Moreover, the logD at 0.5 h in [2] was 1.3.

Source of the values: ChEMBL document CHEMBL3588784, “Design of selective PI3Kα inhibitors starting from a promiscuous pan kinase scaffold” (Bioorg Med Chem Lett, 2015).
